In patent US11345711B2, “8,9-dihydroimidazo[1,2-a]pyrimido[5,4-e]pyrimidin-5(6H)-ones” (IMPACT THERAPEUTICS (SHANGHAI), INC, priority 2016, dated 2022):
Like-named read-outs stand apart in the source and are kept apart here.

Legend:
Wee1 (h) = Wee1 (h) (Homo sapiens, UniProt P30291); assay: Wee1 kinase (h) detection method, [γ-33P]-ATP filter assay; assay type: biochemical
Method: Determination of the inhibitory effect of 6-(2-chlorophenyl)-2-((4-(4-methylpiperazin-1-yl)phenyl)amino)-8,9-dihydroimidazo[1,2-a]pyrimido[5,4-e]pyrimidin-5(6H)-one and Analogs on the Enzyme Activity of Wee1 Kinase by Using the Wee1 Kinase (h) Detection Method
Then the stock solution of all compounds under test with 50× concentration in 100% DMSO was added to make the final concentration of 10/1/0.1/0.01 μM, and then mixed the mixture well. The reaction is initiated by the addition of the Mg/ATP mix. After incubation for 40 minutes at room temperature, the reaction is stopped by the addition of phosphoric acid to a concentration of 0.5%. […] Each compound sample is duplicated in duplicate. The negative control was lack of all the components of Wee1 enzyme, and the positive was addition of 30% phosphoric acid to terminate the reaction. The Wee1 inhibitor AZD1775 was detected at 10 μM at the same experiment condition.

LoVo cells = assay: MTT based cell viability assay on LoVo cells; conditions: Homo sapiens, LoVo, 72 h, 3 d, read-out: IC50, growth inhibition of LoVo cells
Method: Determination of the cell growth inhibiting activity of 6-(2-chlorophenyl)-2-((4-(4-methylpiperazin-1-yl)phenyl)amino)-8,9-dihydroimidazo[1,2-a]pyrimido[5,4-e]pyrimidin-5(6H)-one and analogs on LoVo cells using a MTT based cell viability assay
(§1) The thawed LoVo cells were cultured and passaged to the third generation, and the growth state was good and the confluence was about 90%, which began to be used in the experiment. The LoVo cells were digested with trypsin, centrifuged at 800 rpm for 5 min, the supernatant was discarded, resuspended with fresh culture medium, and counted. 6000 Cells are seeded to each well of a 96-well plate. The cells are incubated at 37° C. in a 5% CO2 cell culture incubator overnight. The tested sample (including the tested compound and the reference compound AZD1775) was diluted continuously to 8 concentrations (the last concentration was negative control of DMSO) with a 1:3 and 1:10 dilution in DMSO respectively: 10 μM, 3.3 μM, 1 μM, 0.33 μM, 0.1 μM, 0.033 μM, 0.01 μM, 0 μM (the final concentration of DMSO was 1%). 5 μL of each concentration was added to 120 μL of culture medium (25 times diluted), and the mixture was shaken well. The overnight cells were taken and the culture medium was removed, 195 μL of fresh culture medium was added to each well, and 5 μL of diluted culture medium containing the corresponding concentration of the tested sample was added respectively, and the culture plate was then placed in the 5% CO2 cell culture incubator at 37° C. for 3 d. After removing the original solution and adding 100 μL of fresh serum-free DMEM culture medium containing MTT (0.5 mg/mL) per well, the culture was continued. The original solution was removed after 4 hrs and 100 μl DMSO was added to each well. The 96-well cell culture plates were shaken away from light for 10 min and readed in a multifunctional reader at 552/630/690 nm to give absorption values (OD values). The data were analyzed using a commercial graphic software (Graph Pad Prism 5.0) and the inhibitory activity of the compound on cell proliferation was plotted in terms of cell survival and compound concentration. The IC50 values were fitted by the S-shaped dose-response curve equation as follows: Y=100/(1+10^(Log C-Log IC50)), where C was the concentration of testing compounds.

NCI-H1299 cells = assay: MTT based cell viability assay on NCI-H1299 cells; conditions: Homo sapiens, read-out: IC50, growth inhibition of NCI-H1299 cells
Method: Determination of the cell growth inhibiting activity of 6-(2-chlorophenyl)-2-((4-(4-methylpiperazin-1-yl)phenyl)amino)-8,9-dihydroimidazo[1,2-a]pyrimido[5,4-e]pyrimidin-5(6H)-one and analogs on NCI-H1299 cells using a MTT based cell viability assay
as §1, with “NCI-H1299” for “LoVo”, “group,” for “medium,”, “1000” for “6000”, “1‰).” for “1%).”, “C−Log” for “C-Log”

Wee1 (h), sequence (P30291 whole entry): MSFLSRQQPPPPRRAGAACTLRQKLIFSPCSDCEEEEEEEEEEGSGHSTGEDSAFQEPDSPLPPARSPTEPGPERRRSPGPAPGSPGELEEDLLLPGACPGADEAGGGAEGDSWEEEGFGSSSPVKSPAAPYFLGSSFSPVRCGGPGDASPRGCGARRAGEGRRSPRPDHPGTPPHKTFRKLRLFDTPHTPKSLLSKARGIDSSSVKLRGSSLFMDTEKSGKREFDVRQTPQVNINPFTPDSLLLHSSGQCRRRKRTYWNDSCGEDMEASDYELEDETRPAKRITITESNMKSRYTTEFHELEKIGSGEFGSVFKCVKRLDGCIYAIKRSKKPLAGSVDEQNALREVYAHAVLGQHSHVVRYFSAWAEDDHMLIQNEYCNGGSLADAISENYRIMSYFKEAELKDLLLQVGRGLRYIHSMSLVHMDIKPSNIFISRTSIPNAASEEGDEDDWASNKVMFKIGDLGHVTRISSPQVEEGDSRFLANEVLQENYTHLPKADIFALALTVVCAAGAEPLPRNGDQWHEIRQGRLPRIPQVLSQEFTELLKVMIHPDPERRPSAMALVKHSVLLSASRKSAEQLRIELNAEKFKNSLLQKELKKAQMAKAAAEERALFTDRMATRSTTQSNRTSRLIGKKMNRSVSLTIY

Row | Inh. (%) of Wee1 kinase enzyme activity (Wee1 (h); C 0.01 μm compound) | Inh. (%) of Wee1 kinase enzyme activity (Wee1 (h); C 0.1 μm compound) | Inh. (%) of Wee1 kinase enzyme activity (Wee1 (h); C 1 μm compound) | IC50 (LoVo cells) | IC50 (NCI-H1299 cells; NCI-H1299, NCI-H1299 cells) | IC50 (NCI-H1299 cells; NCI-H1299 cells) | Structure (SMILES)
1 | 29% | 77% | 100% | 41.4 nM | 149 nM | – | Cc1cc(Nc2ncc3c(n2)N2CCN=C2N(c2c(Cl)cccc2Cl)C3=O)ccc1N1C[C@@H](C)N(C(C)C)[C@@H](C)C1 [Example 78, 6-(2,6-Dichlorophenyl)-2-((4-((3S,5R)-4-isopropyl-3,5-dimethylpiperazin-1-yl)-3-methylphenyl)amino)-8,9-dihydroimidazo[1,2-a]pyrimido[5,4-e]pyrimidin-5(6H)-one]
2 | 43% | 87% | 97% | 39.1 nM | 218 nM | – | Cc1cc(Nc2ncc3c(n2)N2CCN=C2N(c2c(F)cccc2Cl)C3=O)cc(F)c1N1CCN(C)CC1 [Example 123, 6-(2-Chloro-6-fluorophenyl)-2-((3-fluoro-5-methyl-4-(4-methylpiperazin-1-yl)phenyl)amino)-8,9-dihydroimidazo[1,2-a]pyrimido[5,4-e]pyrimidin-5(6H)-one]
3 | 21% | 72% | 97% | 84.9 nM | – | 219 nM | CN1CCN(c2ccc(Nc3ncc4c(n3)N3CCN=C3N(c3c(Cl)cccc3Cl)C4=O)cc2Br)CC1 [Example 145, 6-(2,6-Dichlorophenyl)-2-((3-bromo-4-(4-methylpiperazin-1-yl)phenyl)amino)-8,9-dihydroimidazo[1,2-a]pyrimido[5,4-e]pyrimidin-5(6H)-one]
4 | 25% | 82% | 96% | 81.1 nM | 96.4 nM | – | CN(C)C1CCN(c2ccc(Nc3ncc4c(n3)N3CCN=C3N(c3c(F)cccc3Cl)C4=O)cc2Br)CC1 [Example 118, 6-(2-Chloro-6-fluorophenyl)-2-((3-bromo-4-(4-(dimethylamino)piperidin-1-yl)phenyl)amino)-8,9-dihydroimidazo[1,2-a]pyrimido[5,4-e]pyrimidin-5(6H)-one]
5 | 31% | 81% | 95% | 45.6 nM | 85.9 nM | – | CN(C)C1CCN(c2ccc(Nc3ncc4c(n3)N3CCN=C3N(c3c(Cl)cccc3Cl)C4=O)cc2Cl)CC1 [Example 139, 6-(2,6-Dichlorophenyl)-2-((3-chloro-4-(4-(dimethylamino)piperidin-1-yl)phenyl)amino)-8,9-dihydroimidazo[1,2-a]pyrimido[5,4-e]pyrimidin-5(6H)-one]
6 | – | – | 2% | > 100000 nM | – | > 10000 nM | C[C@@H]1CN(c2ccc(Nc3ncc4c(n3)N3CCN=C3N(c3c(F)cccc3Cl)C4=O)c(C(F)(F)F)c2)C[C@H](C)N1C [Example 41, 6-(2-Chloro-6-fluorophenyl)-2-((2-trifluoromethyl-4-((3S,5R)-3,4,5-trimethylpiperazin-1-yl)phenyl)amino)-8,9-dihydroimidazo[1,2-a]pyrimido[5,4-e]pyrimidin-5(6H)-one]
7 | – | – | 7% | > 100000 nM | – | > 10000 nM | O=C1c2cnc(Nc3ccc(-n4ccnc4)cc3)nc2N2CCN=C2N1c1c(F)cccc1Cl [Example 102, 6-(2-Chloro-6-fluorophenyl)-2-((4-(1H-imidazol-1-yl)phenyl)amino)-8,9-dihydroimidazo[1,2-a]pyrimido[5,4-e]pyrimidin-5(6H)-one]
8 | – | – | 96% | 142 nM | – | 187 nM | CN1CCN(c2ccc(Nc3ncc4c(n3)N3CCN=C3N(c3c(Cl)cccc3Cl)C4=O)cc2CO)CC1 [Example 181, 6-(2,6-Dichlorophenyl)-2-((3-(hydroxymethyl)-4-(4-methylpiperazin-1-yl)phenyl)amino)-8,9-dihydroimidazo[1,2-a]pyrimido[5,4-e]pyrimidin-5(6H)-one]
9 | – | – | 8% | 1880 nM | – | 2130 nM | CN1CCN(c2ccc(Nc3ncc4c(n3)N3CCN=C3N(C3CCCC3)C4=O)cc2)CC1 [Example 95, 6-Cyclopentyl-2-((4-(4-methylpiperazin-1-yl)phenyl)amino)-8,9-dihydroimidazo[1,2-a]pyrimido[5,4-e]pyrimidin-5(6H)-one]
10 | 16% | 59% | 95% | 228 nM | 442 nM | – | Cc1cccc(Cl)c1N1C(=O)c2cnc(Nc3ccc(N4CCN(C)CC4)c(Cl)c3)nc2N2CCN=C21 [Example 171, 6-(2-Chloro-6-methylphenyl)-2-((3-chloro-4-(4-methylpiperazin-1-yl)phenyl)amino)-8,9-dihydroimidazo[1,2-a]pyrimido[5,4-e]pyrimidin-5(6H)-one]
11 | 36% | 75% | 94% | 214 nM | 310 nM | – | C[C@@H]1CN(c2c(Cl)cc(Nc3ncc4c(n3)N3CCN=C3N(c3c(Cl)cccc3Cl)C4=O)cc2Cl)C[C@H](C)N1C [Example 136, 6-(2,6-Dichlorophenyl)-2-((3,5-dichloro-4-((3S,5R)-3,4,5-trimethylpiperazin-1-yl)phenyl)amino)-8,9-dihydroimidazo[1,2-a]pyrimido[5,4-e]pyrimidin-5(6H)-one]
12 | – | – | 95% | 775 nM | – | 1040 nM | O=C1c2cnc(Nc3ccc(N4CCOCC4)cc3)nc2N2CCN=C2N1c1c(Cl)cccc1Cl [Example 183, 6-(2,6-Dichlorophenyl)-2-((4-morpholinophenyl)amino)-8,9-dihydroimidazo[1,2-a]pyrimido[5,4-e]pyrimidin-5(6H)-one]
13 | 111% | 80% | 93% | 87.4 nM | 127 nM | – | Cc1cc(Nc2ncc3c(n2)N2CCN=C2N(c2c(F)cccc2Cl)C3=O)ccc1N1CCN(C(C)C)CC1 [Example 52, 6-(2-Chloro-6-fluorophenyl)-2-((4-(4-isopropylpiperazin-1-yl)-3-methylphenyl)amino)-8,9-dihydroimidazo[1,2-a]pyrimido[5,4-e]pyrimidin-5(6H)-one]
